{
  "source": "paper PMC8626469",
  "about": "“Helicobacter pylori FabX contains a [4Fe-4S] cluster essential for unsaturated fatty acid synthesis” (Nature Communications, 2021)",
  "molecular_target": "T1, FabX (Helicobacter pylori, UniProt A0A0B2E3F3)",
  "T1 construct": "gene C2842_03950; full length, 363 residues; expressed in E. coli BL21(DE3) Rosetta; monomer in the asymmetric unit; holds FMN and a [4Fe-4S] cluster",
  "T1 sequence (A0A0B2E3F3 1-363)": "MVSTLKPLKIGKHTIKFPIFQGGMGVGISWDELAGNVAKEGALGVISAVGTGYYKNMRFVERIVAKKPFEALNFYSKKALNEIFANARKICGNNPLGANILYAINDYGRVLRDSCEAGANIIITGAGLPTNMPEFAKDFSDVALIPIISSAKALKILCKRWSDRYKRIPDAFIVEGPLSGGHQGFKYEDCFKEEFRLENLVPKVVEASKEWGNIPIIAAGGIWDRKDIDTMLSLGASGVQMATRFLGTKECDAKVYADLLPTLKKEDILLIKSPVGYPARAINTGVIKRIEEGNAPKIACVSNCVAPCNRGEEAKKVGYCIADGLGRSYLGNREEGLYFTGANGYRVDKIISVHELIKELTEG",
  "test": "X-ray crystal structure, […] Å",
  "assay_type": "binding",
  "conditions": "noncovalent in TIM-barrel core; also present in complexes with holo-ACP and octanoyl-ACP",
  "data": [
    {"smiles": "Cc1cc2nc3c(=O)[nH]c(=O)nc-3n(C[C@H](O)[C@H](O)[C@H](O)COP(=O)(O)O)c2cc1C", "note": "[FMN]", "values": [
      {"measurement": "X-ray crystal structure, 1.7 Å", "result": "a FMN molecule is noncovalently bound inside the core"}
    ]}
  ]
}
